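At the GI50, growth is halved. At the TGI there is no net growth.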
Tests used:
Assay in all cases: NCI tumour cell line growth inhibition, 384-well format
SF-268 CNS = tested on: SF-268 CNS
MALME-3M melanoma = tested on: MALME-3M melanoma
TK-10 renal = tested on: TK-10 renal
HT29 colon = tested on: HT29 colon
IGROV1 ovarian = tested on: IGROV1 ovarian
MDA-MB-435 melanoma = tested on: MDA-MB-435 melanoma
EKVX NSCLC = tested on: EKVX NSCLC
OVCAR-5 ovarian = tested on: OVCAR-5 ovarian
HOP-92 NSCLC = tested on: HOP-92 NSCLC
A549 NSCLC = tested on: A549 NSCLC
HCT-15 colon = tested on: HCT-15 colon
UACC-62 melanoma = tested on: UACC-62 melanoma
SN12C renal = tested on: SN12C renal
KM12 colon = tested on: KM12 colon
SW-620 colon = tested on: SW-620 colon
RXF 393 renal = tested on: RXF 393 renal
SK-MEL-5 melanoma = tested on: SK-MEL-5 melanoma
CAKI-1 renal = tested on: CAKI-1 renal
M14 melanoma = tested on: M14 melanoma
NCI-H322M lung = tested on: NCI-H322M lung
SNB-75 CNS = tested on: SNB-75 CNS
SNB-19 CNS = tested on: SNB-19 CNS
MOLT-4 leukemia = tested on: MOLT-4 leukemia
COLO 205 colon = tested on: COLO 205 colon
OVCAR-8 ovarian = tested on: OVCAR-8 ovarian
HCT-116 colon = tested on: HCT-116 colon
PC-3 prostate = tested on: PC-3 prostate
NCI/ADR-RES ovarian = tested on: NCI/ADR-RES ovarian
HS 578T breast = tested on: HS 578T breast
SK-MEL-2 melanoma = tested on: SK-MEL-2 melanoma
ACHN renal = tested on: ACHN renal
SF-539 CNS = tested on: SF-539 CNS
SF-295 CNS = tested on: SF-295 CNS
SK-MEL-28 melanoma = tested on: SK-MEL-28 melanoma
UO-31 renal = tested on: UO-31 renal
CCRF-CEM leukemia = tested on: CCRF-CEM leukemia
MDA-MB-468 breast = tested on: MDA-MB-468 breast
T-47D breast = tested on: T-47D breast
SR leukemia = tested on: SR leukemia
HOP-62 NSCLC = tested on: HOP-62 NSCLC
K-562 leukemia = tested on: K-562 leukemia
NCI-H460 NSCLC = tested on: NCI-H460 NSCLC
RPMI-8226 leukemia = tested on: RPMI-8226 leukemia
U251 glioblastoma = tested on: U251 glioblastoma
A498 renal = tested on: A498 renal
NCI-H522 lung = tested on: NCI-H522 lung
MCF7 breast = tested on: MCF7 breast

With `Cn1cc(CNCC2CCN(c3ncc(C(=O)NO)cn3)CC2)c2ccccc21` the GI50 (SF-268 CNS) was < 10.4 nM, the TGI (SF-268 CNS) was 24.4 nM and the GI50 (MALME-3M melanoma) was < 10 nM. For the same compound, the TGI (MALME-3M melanoma) was < 14.5 nM, the GI50 (TK-10 renal) was 12.2 nM and the TGI (TK-10 renal) was 38.3 nM. For the same compound, the GI50 (HT29 colon) was 10 nM, the TGI (HT29 colon) was 21.6 nM and the GI50 (IGROV1 ovarian) was 10.2 nM. For the same compound, the TGI (IGROV1 ovarian) was 23.7 nM, the GI50 (MDA-MB-435 melanoma) was 12.1 nM and the TGI (MDA-MB-435 melanoma) was 29.7 nM. The GI50 (EKVX NSCLC) was 30.4 nM, the TGI (EKVX NSCLC) was 303 nM and the GI50 (OVCAR-5 ovarian) was < 10 nM. The TGI (OVCAR-5 ovarian) was 23.6 nM, the GI50 (HOP-92 NSCLC) was < 12.2 nM and the TGI (HOP-92 NSCLC) was 31.7 nM. For the same compound, the GI50 (A549 NSCLC) was 11.9 nM, the TGI (A549 NSCLC) was 32.1 nM and the GI50 (HCT-15 colon) was 49.4 nM. The TGI (HCT-15 colon) was 300 nM, the GI50 (UACC-62 melanoma) was < 10 nM and the TGI (UACC-62 melanoma) was 14.9 nM. The GI50 (SN12C renal) was 14.1 nM, the TGI (SN12C renal) was 29.7 nM and the GI50 (KM12 colon) was 16.7 nM. It also gave a TGI (KM12 colon) of 63.6 nM, a GI50 (SW-620 colon) of 12.9 nM and a TGI (SW-620 colon) of 26.2 nM. For the same compound, the GI50 (RXF 393 renal) was 16.2 nM, the TGI (RXF 393 renal) was 35.5 nM and the GI50 (SK-MEL-5 melanoma) was < 10 nM. The TGI (SK-MEL-5 melanoma) was < 10 nM, the GI50 (CAKI-1 renal) was < 11.2 nM and the TGI (CAKI-1 renal) was 26 nM. The GI50 (M14 melanoma) was < 10 nM, the TGI (M14 melanoma) was 105 nM and the GI50 (NCI-H322M lung) was 12.3 nM. The TGI (NCI-H322M lung) was 40.5 nM, the GI50 (SNB-75 CNS) was 10.1 nM and the TGI (SNB-75 CNS) was 46.1 nM. The GI50 (SNB-19 CNS) was 17.3 nM, the TGI (SNB-19 CNS) was 45.7 nM and the GI50 (MOLT-4 leukemia) was < 10 nM. The TGI (MOLT-4 leukemia) was < 10 nM, the GI50 (COLO 205 colon) was < 10 nM and the TGI (COLO 205 colon) was 18.3 nM. For the same compound, the GI50 (OVCAR-8 ovarian) was < 10 nM, the TGI (OVCAR-8 ovarian) was 21.3 nM and the GI50 (HCT-116 colon) was < 10 nM. The TGI (HCT-116 colon) was 15.7 nM, the GI50 (PC-3 prostate) was < 12.3 nM and the TGI (PC-3 prostate) was 46.2 nM. For the same compound, the GI50 (NCI/ADR-RES ovarian) was 94.9 nM, the TGI (NCI/ADR-RES ovarian) was 329 nM and the GI50 (HS 578T breast) was < 10.4 nM. The TGI (HS 578T breast) was 22.4 nM, the GI50 (SK-MEL-2 melanoma) was < 10 nM and the TGI (SK-MEL-2 melanoma) was 10.6 nM. The GI50 (ACHN renal) was 14.3 nM, the TGI (ACHN renal) was 34.9 nM and the GI50 (SF-539 CNS) was 13.9 nM. It also gave a TGI (SF-539 CNS) of 53 nM, a GI50 (SF-295 CNS) of 16.1 nM and a TGI (SF-295 CNS) of 54.4 nM. For the same compound, the GI50 (SK-MEL-28 melanoma) was < 11 nM, the TGI (SK-MEL-28 melanoma) was 27.6 nM and the GI50 (UO-31 renal) was 27.3 nM. The TGI (UO-31 renal) was 123 nM, the GI50 (CCRF-CEM leukemia) was < 10 nM and the TGI (CCRF-CEM leukemia) was < 10.8 nM. The GI50 (MDA-MB-468 breast) was < 10 nM, the TGI (MDA-MB-468 breast) was < 10 nM and the GI50 (T-47D breast) was < 10 nM. The TGI (T-47D breast) was 15.5 nM, the GI50 (SR leukemia) was < 10 nM and the TGI (SR leukemia) was < 10 nM. For the same compound, the GI50 (HOP-62 NSCLC) was < 11.8 nM, the TGI (HOP-62 NSCLC) was 62.1 nM and the GI50 (K-562 leukemia) was < 10.5 nM. The TGI (K-562 leukemia) was 22.6 nM, the GI50 (NCI-H460 NSCLC) was < 11.1 nM and the TGI (NCI-H460 NSCLC) was 37.1 nM. For the same compound, the GI50 (RPMI-8226 leukemia) was < 10 nM, the TGI (RPMI-8226 leukemia) was < 10 nM and the GI50 (U251 glioblastoma) was 11.3 nM. It also gave a TGI (U251 glioblastoma) of 24.1 nM, a GI50 (A498 renal) of 12.8 nM and a TGI (A498 renal) of 29.3 nM. The GI50 (NCI-H522 lung) was < 10 nM, the TGI (NCI-H522 lung) was 20.8 nM and the GI50 (MCF7 breast) was < 10 nM. The TGI (MCF7 breast) was 20.9 nM.

Reference: PubChem BioAssay (NCI)
